For the experiment, the target named is PARP7 (Homo sapiens (Human), UniProt Q7Z3E1). Briefly: Enzymatic assay for inhibition of PARP7: TR-FRET displacement of biotinylated Probe A from the TIPARP active site. The experiment is classed as binding. The settings on record: Table A-1. In short, it runs like this: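 TR-FRET, ex 320 nm / em 615 and 665 nm. Signal ratio reflects complex formation.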

Bounds are passed on as bounds.

Among the data in patent US10550105B2 (Ribon Therapeutics Inc., priority 2018, dated 2020) are IC50 values, retold here.

In general, IC50 refers to the concentration that inhibits the measured activity by half.

Sequence of PARP7 (Q7Z3E1 whole entry): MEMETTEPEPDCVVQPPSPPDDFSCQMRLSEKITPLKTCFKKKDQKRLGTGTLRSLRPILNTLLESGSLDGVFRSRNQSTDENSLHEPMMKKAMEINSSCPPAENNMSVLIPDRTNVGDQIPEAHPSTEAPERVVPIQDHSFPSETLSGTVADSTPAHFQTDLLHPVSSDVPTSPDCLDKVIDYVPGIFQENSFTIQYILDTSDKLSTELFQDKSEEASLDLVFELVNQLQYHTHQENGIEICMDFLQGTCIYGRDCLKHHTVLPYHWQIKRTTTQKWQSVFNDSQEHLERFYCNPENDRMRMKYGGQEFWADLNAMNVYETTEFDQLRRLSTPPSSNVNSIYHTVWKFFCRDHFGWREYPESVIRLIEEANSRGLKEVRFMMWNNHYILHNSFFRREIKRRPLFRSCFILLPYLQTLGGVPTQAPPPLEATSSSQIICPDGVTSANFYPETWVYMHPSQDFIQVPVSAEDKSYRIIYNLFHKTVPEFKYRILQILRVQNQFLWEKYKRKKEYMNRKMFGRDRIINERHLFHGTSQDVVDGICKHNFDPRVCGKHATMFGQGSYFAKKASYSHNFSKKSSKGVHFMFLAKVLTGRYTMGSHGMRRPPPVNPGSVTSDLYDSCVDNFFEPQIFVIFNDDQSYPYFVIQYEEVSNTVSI

In turn, `COc1ccc2c(c1)CN(c1cn[nH]c(=O)c1C(F)(F)F)C2` [Example 174, 5-(5-Methoxyisoindolin-2-yl)-4-(trifluoromethyl)pyridazin-3(2H)-one] displayed an IC50 of less than 100 nM.

The compound `Cc1c(N2Cc3cccc(OC4CCNCC4)c3C2)cn[nH]c1=O` [Example 175, 4-Methyl-5-(4-(piperidin-4-yloxy)isoindolin-2-yl)pyridazin-3(2H)-one] registered an IC50 not below 1000 nM.

Regarding `N#Cc1c(N2Cc3cccc(OCCO)c3C2)cn[nH]c1=O` [Example 176, 5-(4-(2-Hydroxyethoxy)isoindolin-2-yl)-3-oxo-2,3-dihydropyridazine-4-carbonitrile], the IC50 was not below 1000 nM.

Turning to `O=c1[nH]ncc(N2Cc3ccc(OCCO)cc3C2)c1C(F)(F)F` [Example 177, 5-(5-(2-Hydroxyethoxy)isoindolin-2-yl)-4-(trifluoromethyl)pyridazin-3(2H)-one], the concentration for half-maximal inhibition (IC50) was less than 100 nM.

The compound `CN(C)c1cccc2c1CN(c1cn[nH]c(=O)c1C(F)(F)F)C2` [Example 178, 5-(4-(Dimethylamino)isoindolin-2-yl)-4-(trifluoromethyl)pyridazin-3(2H)-one] had an IC50 of less than 100 nM.

On to `CC(=O)Nc1cccc2c1CN(c1cn[nH]c(=O)c1C(F)(F)F)C2` [Example 179, N-(2-(6-Oxo-5-(trifluoromethyl)-1,6-dihydropyridazin-4-yl)isoindolin-4-yl)acetamide], for which the IC50 is 100 to 1000 nM.

In turn, `O=c1[nH]ncc(N2Cc3cccc(F)c3C2)c1C(F)(F)F` [Example 180, 5-(4-Fluoroisoindolin-2-yl)-4-(trifluoromethyl)pyridazin-3(2H)-one] showed an IC50 of less than 100 nM.

On to `O=c1[nH]ncc(N2Cc3cccc(OCCO)c3C2)c1C(F)(F)F` [Example 181, 5-(4-(2-Hydroxyethoxy)isoindolin-2-yl)-4-(trifluoromethyl)pyridazin-3(2H)-one], for which the 50% inhibitory concentration (IC50) was less than 100 nM.

`N#Cc1c(N2Cc3cccc(OC4CCNCC4)c3C2)cn[nH]c1=O` [Example 182, 3-Oxo-5-(4-(piperidin-4-yloxy)isoindolin-2-yl)-2,3-dihydropyridazine-4-carbonitrile formic acid] registered a half-maximal inhibitory concentration (IC50) not below 1000 nM.

In turn, `O=c1[nH]ncc(N2Cc3cccc(OC4CCNCC4)c3C2)c1C1CC1` [Example 183, 4-Cyclopropyl-5-(4-(piperidin-4-yloxy)isoindolin-2-yl)pyridazin-3(2H)-one formic acid] registered an IC50 not below 1000 nM.

For `COc1c(N2Cc3cccc(OCCO)c3C2)cn[nH]c1=O` [Example 184, 5-(4-(2-Hydroxyethoxy)isoindolin-2-yl)-4-methoxypyridazin-3(2H)-one], the IC50 is not below 1000 nM.

On to `CCc1c(N2Cc3cccc(OCCO)c3C2)cn[nH]c1=O` [Example 185, 4-Ethyl-5-(4-(2-hydroxyethoxy)isoindolin-2-yl)pyridazin-3(2H)-one], for which the IC50 is not below 1000 nM.

Consider `O=c1[nH]ncc(N2Cc3cccc(OCCO)c3C2)c1C1CC1` [Example 186, 4-Cyclopropyl-5-(4-(2-hydroxyethoxy)isoindolin-2-yl)pyridazin-3(2H)-one], for which the IC50 was not below 1000 nM.

`Cc1c(N2Cc3ccc(OC4CCNCC4)cc3C2)cn[nH]c1=O` [Example 187, 4-Methyl-5-(5-(piperidin-4-yloxy)isoindolin-2-yl)pyridazin-3(2H)-one] yielded an IC50 not below 1000 nM.

Compound `Cc1c(N2Cc3ccc(OCCO)cc3C2)cn[nH]c1=O` [Example 188, 5-(5-(2-Hydroxyethoxy)isoindolin-2-yl)-4-methylpyridazin-3(2H)-one] came in with a concentration for half-maximal inhibition (IC50) of 100 to 1000 nM.

As to `CSc1c(N2Cc3ccccc3C2)cn[nH]c1=O` [Example 189, 5-(Isoindolin-2-yl)-4-(methylthio)pyridazin-3(2H)-one], the concentration for half-maximal inhibition (IC50) was 100 to 1000 nM.

Turning to `O=c1[nH]ncc(N2Cc3ccccc3C2CO)c1Cl` (centres unmarked) [Example 191, 4-Chloro-5-(1-(hydroxymethyl)isoindolin-2-yl)pyridazin-3(2H)-one], the IC50 was not below 1000 nM.

The compound `CCOc1cccc2c1CN(c1cn[nH]c(=O)c1C(F)(F)F)C2` [Example 192, 5-(4-Ethoxyisoindolin-2-yl)-4-(trifluoromethyl)pyridazin-3(2H)-one] showed a concentration for half-maximal inhibition (IC50) of less than 100 nM.

As to `CC(C)Oc1cccc2c1CN(c1cn[nH]c(=O)c1C(F)(F)F)C2` [Example 193, 5-(4-Isopropoxyisoindolin-2-yl)-4-(trifluoromethyl)pyridazin-3(2H)-one], the IC50 is less than 100 nM.

As to `O=c1[nH]ncc(N2Cc3cccc(OC4CCOCC4)c3C2)c1C(F)(F)F` [Example 194, 5-(4-((Tetrahydro-2H-pyran-4-yl)oxy)isoindolin-2-yl)-4-(trifluoromethyl)pyridazin-3(2H)-one], the concentration for half-maximal inhibition (IC50) is less than 100 nM.

Take `O=c1[nH]ncc(N2Cc3cccc(Oc4ccncn4)c3C2)c1C(F)(F)F` [Example 195, 5-(4-(Pyrimidin-4-yloxy)isoindolin-2-yl)-4-(trifluoromethyl)pyridazin-3(2H)-one]: the IC50 was less than 100 nM.

The compound `O=c1[nH]ncc(N2Cc3cccc(OCc4ccncc4)c3C2)c1C(F)(F)F` [Example 196, 5-(4-(Pyridin-4-ylmethoxy)isoindolin-2-yl)-4-(trifluoromethyl)pyridazin-3(2H)-one] yielded a half-inhibitory concentration (IC50) of less than 100 nM.

`O=c1[nH]ncc(N2Cc3cccc(OCc4cccnc4)c3C2)c1C(F)(F)F` [Example 197, 5-(4-(Pyridin-3-ylmethoxy)isoindolin-2-yl)-4-(trifluoromethyl)pyridazin-3(2H)-one] yielded an IC50 of less than 100 nM.

As for `O=c1[nH]ncc(N2Cc3cccc(OCc4ccccn4)c3C2)c1C(F)(F)F` [Example 198, 5-(4-(Pyridin-2-ylmethoxy)isoindolin-2-yl)-4-(trifluoromethyl)pyridazin-3(2H)-one], the IC50 was less than 100 nM.

As to `O=c1[nH]ncc(N2Cc3cccc(OCC4CCCOC4)c3C2)c1C(F)(F)F` (centres unmarked) [Example 199, 5-(4-((Tetrahydro-2H-pyran-3-yl)methoxy)isoindolin-2-yl)-4-(trifluoromethyl)pyridazin-3(2H)-one], the IC50 is less than 100 nM.

`O=c1[nH]ncc(N2Cc3cccc(OCC4CCOC4)c3C2)c1C(F)(F)F` (centres unmarked) [Example 200, 5-(4-((Tetrahydrofuran-3-yl)methoxy)isoindolin-2-yl)-4-(trifluoromethyl)pyridazin-3(2H)-one] registered a concentration for half-maximal inhibition (IC50) of less than 100 nM.

For `O=c1[nH]ncc(N2Cc3cccc(OCC4CCCO4)c3C2)c1C(F)(F)F` (centres unmarked) [Example 201, 5-(4-((Tetrahydrofuran-2-yl)methoxy)isoindolin-2-yl)-4-(trifluoromethyl)pyridazin-3(2H)-one], the IC50 is less than 100 nM.

The compound `O=C1OCCC1Oc1cccc2c1CN(c1cn[nH]c(=O)c1C(F)(F)F)C2` (centres unmarked) [Example 202, 5-(4-((2-Oxotetrahydrofuran-3-yl)oxy)isoindolin-2-yl)-4-(trifluoromethyl)pyridazin-3(2H)-one] came in with an IC50 of less than 100 nM.

As for `O=c1[nH]ncc(N2Cc3cccc(OC4CCOC4)c3C2)c1C(F)(F)F` (centres unmarked) [Example 203, 5-(4-((Tetrahydrofuran-3-yl)oxy)isoindolin-2-yl)-4-(trifluoromethyl)pyridazin-3(2H)-one], the IC50 was less than 100 nM.

`NC(=O)COc1cccc2c1CN(c1cn[nH]c(=O)c1C(F)(F)F)C2` [Example 204, 2-((2-(6-Oxo-5-(trifluoromethyl)-1,6-dihydropyridazin-4-yl)isoindolin-4-yl)oxy)acetamide] came in with a concentration for half-maximal inhibition (IC50) of 100 to 1000 nM.

`Nc1cccc2c1CN(c1cn[nH]c(=O)c1C(F)(F)F)C2` [Example 205, 5-(4-Aminoisoindolin-2-yl)-4-(trifluoromethyl)pyridazin-3(2H)-one] had an IC50 of less than 100 nM.

`N#Cc1cccc2c1CN(c1cn[nH]c(=O)c1C(F)(F)F)C2` [Example 206, 2-(6-Oxo-5-(trifluoromethyl)-1,6-dihydropyridazin-4-yl)isoindoline-4-carbonitrile] returned a concentration for half-maximal inhibition (IC50) of less than 100 nM.

`COCC1c2ccccc2CN1c1cn[nH]c(=O)c1Cl` (centres unmarked) [Example 207, 4-Chloro-5-(1-(methoxymethyl)isoindolin-2-yl)pyridazin-3(2H)-one] gave a concentration for half-maximal inhibition (IC50) not below 1000 nM.

`CC1c2ccccc2CN1c1cn[nH]c(=O)c1Cl` (centres unmarked) [Example 208, 4-Chloro-5-(1-methylisoindolin-2-yl)pyridazin-3(2H)-one] yielded an IC50 not below 1000 nM.

`NCCOc1cccc2c1CN(c1cn[nH]c(=O)c1C(F)(F)F)C2` [Example 209, 5-(4-(2-Aminoethoxy)isoindolin-2-yl)-4-(trifluoromethyl)pyridazin-3(2H)-one] had an IC50 of less than 100 nM.

The compound `CN1CCC(Oc2cccc3c2CN(c2cn[nH]c(=O)c2C(F)(F)F)C3)CC1` [Example 210, 5-(4-((1-Methylpiperidin-4-yl)oxy)isoindolin-2-yl)-4-(trifluoromethyl)pyridazin-3(2H)-one] showed a half-maximal inhibitory concentration (IC50) of 100 to 1000 nM.

The compound `CC(=O)NCCOc1cccc2c1CN(c1cn[nH]c(=O)c1C(F)(F)F)C2` [Example 211, N-(2-((2-(6-Oxo-5-(trifluoromethyl)-1,6-dihydropyridazin-4-yl)isoindolin-4-yl)oxy)ethyl)acetamide] returned an IC50 of less than 100 nM.

For `CN(C)CCOc1cccc2c1CN(c1cn[nH]c(=O)c1C(F)(F)F)C2` [Example 212, 5-(4-(2-(Dimethylamino)ethoxy)isoindolin-2-yl)-4-(trifluoromethyl)pyridazin-3(2H)-one], the half-inhibitory concentration (IC50) is 100 to 1000 nM.

With `O=c1[nH]ncc(N2Cc3cccc(OCCN4CCCCC4)c3C2)c1C(F)(F)F` [Example 213, 5-(4-(2-(Piperidin-1-yl)ethoxy)isoindolin-2-yl)-4-(trifluoromethyl)pyridazin-3(2H)-one], the concentration for half-maximal inhibition (IC50) was 100 to 1000 nM.

On to `O=c1[nH]ncc(N2Cc3cccc(OCCN4CCOCC4)c3C2)c1C(F)(F)F` [Example 214, 5-(4-(2-Morpholinoethoxy)isoindolin-2-yl)-4-(trifluoromethyl)pyridazin-3(2H)-one], for which the half-maximal inhibitory concentration (IC50) was less than 100 nM.

For `CNc1cccc2c1CN(c1cn[nH]c(=O)c1C(F)(F)F)C2` [Example 215, 5-(4-(Methylamino)isoindolin-2-yl)-4-(trifluoromethyl)pyridazin-3(2H)-one], the concentration for half-maximal inhibition (IC50) was less than 100 nM.
